ChEMBL document CHEMBL1177729, “Nortriterpene lactones from the fruits of Schisandra arisanensis” (2010)

Assays:
Human alphaherpesvirus 1 = test: Antiviral activity against HSV1 KOS infected in african green monkey Vero cells assessed as inhibition of viral plaque formation in […] cells at 100 uM after 5 days by plaque reduction assay; assay type: functional; conditions: Human alphaherpesvirus 1, KOS, 120 h
Neutrophil = test: Antiinflammatory activity in human neutrophils assessed as inhibition of FMLP/CB-induced elastase release at 10 ug/mL; assay type: functional

Structure (SMILES)	inhibition at 100 µM (Human alphaherpesvirus 1) [%]	inhibition at 10 µg/mL (Neutrophil) [%]
C[C@H]1C(=O)[C@@]2(C)CC[C@]34C[C@]56OC(=O)C[C@@]5(O)OC(C)(C)[C@@H]6C[C@H](O)[C@H]3C(=O)[C@@]3(O[C@H]5[C@H](OC(=O)[C@]5(C)O)[C@@H]1[C@]32C)O4 [ARISANLACTONE B]	25	22.2
O=c1c(-c2ccc(O)cc2)coc2cc(O)cc(O)c12 [GENISTEIN]	–	51.6
C[C@@H]1C(=O)O[C@H]2[C@@H]1O[C@]13O[C@@]4(CC[C@]5(C)C(=O)[C@H](C)[C@H]2[C@]15C)C[C@]12OC(=O)C[C@@]1(O)OC(C)(C)[C@@H]2C[C@H](O)[C@H]4C3=O [SCHINDILACTONE E]	30	–
C[C@H]([C@H](O)[C@@H]1C[C@@H](C)C(=O)O1)[C@@H]1[C@H]2[C@]1(C)CC[C@@]13O[C@]2(O)C(=O)[C@@H]1CC[C@H]1C(C)(C)O[C@@H]2[C@@H](O)C(=O)O[C@@]21[C@H]3O	–	18.5
